Laboratory results taken from the Kinase Knowledgebase extract (Sharma et al. 2016).

What was measured:
CDK2 [1] = target: CDK2 (UniProt P24941); experiment: Enzyme Assay
CDK2 [2] = target: CDK2 (UniProt P24941); experiment: Enzyme Assay; remark: listed apart in the source

Compound | IC50 (CDK2 [1]) [nM] | IC50 (CDK2 [2]) [nM]
CC(C)c1nn(-c2c(Cl)cc(Cl)cc2Cl)c2nc(Cc3ccc(NS(=O)(=O)CCCN4CCOCC4)cc3)[nH]c(=O)c12 | < 100 | < 100
CC(C)c1nn(-c2c(Cl)cccc2Cl)c2nc(Cc3ccc(OP(=O)(O)O)cc3)[nH]c(=O)c12 | < 10 | < 100
CC(C)c1nn(-c2c(Cl)cccc2Cl)c2nc(Cc3ccc(O)c(CN4CCN(C(C)C)CC4)c3)[nH]c(=O)c12 | < 100 | < 100
CC(C)N1CCN(CCOc2ccc(-c3[nH]nc4c3C(=O)c3c(NC(=O)NN5CCOCC5)cccc3-4)cc2)CC1 | < 10 | < 10
O=C(Nc1cccc2c1C(=O)c1c-2n[nH]c1-c1ccc(OCCN(CCO)CCO)cc1)NN1CCOCC1 | < 100 | < 100
O=C(Nc1cccc2c1C(=O)c1c-2n[nH]c1-c1ccc(OCCN2CCCC2)cc1)NN1CCOCC1 | < 100 | < 100
CN1CCN(NC(=O)Nc2cccc3c2C(=O)c2c-3n[nH]c2-c2ccc(OCCN3CCCC3)cc2)CC1 | < 100 | < 100
CN1CCN(NC(=O)Nc2cccc3c2C(=O)c2c-3n[nH]c2-c2ccc(OCCN3CCOCC3)cc2)CC1 | < 10 | < 100
CC(C)c1nn(-c2c(Cl)cc(Cl)cc2Cl)c2nc(Cc3ccc(OCCN4CCOCC4)cc3)[nH]c(=O)c12 | < 100 | < 100
O=C(Nc1cccc2c1C(=O)c1c(-c3ccc(CNCCOCCO)cc3)n[nH]c1-2)NN1CCOCC1 | < 100 | 
O=C(Nc1cccc2c1C(=O)c1c(-c3ccc(CNC(CO)CO)cc3)n[nH]c1-2)NN1CCOCC1 | < 10 | 
O=C(Nc1cccc2c1C(=O)c1c(-c3ccc(CN4CCC[C@H]4CO)cc3)n[nH]c1-2)NN1CCOCC1 | < 100 | 
CCCN(CCOc1ccc(-c2[nH]nc3c2C(=O)c2c(NC(=O)NN4CCOCC4)cccc2-3)cc1)CC1CC1 | < 100 | < 100
CC(C)c1nn(-c2c(Cl)cccc2Cl)c2nc(Cc3ccc(OCCOC(=O)[C@@H](N)C(C)C)cc3)[nH]c(=O)c12 | < 100 | 
CC(C)c1nn(-c2c(Cl)cccc2Cl)c2nc(Cc3ccc(OCCOP(=O)(O)O)cc3)[nH]c(=O)c12 | < 100 | 
CN1CCN(CCOc2ccc(-c3n[nH]c4c3C(=O)c3c(NC(=O)NN5CCN(C)CC5)cccc3-4)c(F)c2)CC1 | < 100 | 
CC(C)c1nn(-c2c(Cl)cc(S(N)(=O)=O)cc2Cl)c2nc(Cc3ccc(OCCN4CCOCC4)cc3)[nH]c(=O)c12 | < 10 | 
